Test results as given in patent US20200347043A1, “MODULATORS OF THE INTEGRATED STRESS PATHWAY” (Calico Life Sciences LLC, priority 2019, published 2020).

What follows are molecules tested on HEK293T cells carrying the ATF4 luciferase reporter (assay: ATF4-Luc assay (in vitro model of VWMD)). Conditions: Homo sapiens, HEK-293T, 1 μg/mL tunicamycin, 7 hours, One Glo luminescence.
Format: cell-based, human
In short: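 Stable HEK293T line expressing firefly luciferase behind the human ATF4 5′-UTR, treated with 1 μg/mL tunicamycin plus compound for 7 hours. Luminescence read with One Glo; EC50 determined.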
In the case of `O=C(N[C@H]1CC[C@H](C(=O)NCc2ccc(C(F)(F)F)cn2)CC1)[C@H]1C[C@H](O)c2cc(Cl)ccc2O1` [Compound 198, (2R,4S)-6-chloro-4-hydroxy-N-[trans-4-({[5-(trifluoromethyl)pyridin-2-yl]methyl}carbamoyl)cyclohexyl]-3,4-dihydro-2H-1-benzopyran-2-carboxamide], the EC50 is reported as 250 to 500 nM.
`O=C(NC12CC(n3cnc(-c4ccc(C(F)(F)F)nc4)c3)(C1)C2)[C@H]1C[C@@H](O)c2cc(Cl)ccc2O1` [Compound 201, (2R,4R)-6-chloro-4-hydroxy-N-(3-{4-[6-(trifluoromethyl)pyridin-3-yl]-1H-imidazol-1-yl}bicyclo[1.1.1]pentan-1-yl)-3,4-dihydro-2H-1-benzopyran-2-carboxamide] gave an EC50 of less than 10 nM.
`O=C(NC12CCC(c3nnc([C@H]4C[C@@H](OC(F)(F)F)C4)o3)(CC1)CC2)[C@H]1C[C@@H](O)c2cc(Cl)ccc2O1` [Compound 203, (2R,4R)-6-chloro-4-hydroxy-N-(4-{5-[cis-3-(trifluoromethoxy)cyclobutyl]-1,3,4-oxadiazol-2-yl}bicyclo[2.2.2]octan-1-yl)-3,4-dihydro-2H-1-benzopyran-2-carboxamide] gave an EC50 of less than 10 nM.
`O=C(NC12CCC(c3nnc([C@H]4C[C@@H](OC(F)(F)F)C4)o3)(CC1)CC2)[C@@H]1C[C@H](O)c2cc(Cl)ccc2O1` [Compound 204, (2S,4S)-6-chloro-4-hydroxy-N-(4-{5-[cis-3-(trifluoromethoxy)cyclobutyl]-1,3,4-oxadiazol-2-yl}bicyclo[2.2.2]octan-1-yl)-3,4-dihydro-2H-1-benzopyran-2-carboxamide] was tested, and the EC50 was 10 to 50 nM.
`O=C(NC12CCC(C(=O)N[C@H]3C[C@@H](OC(F)(F)F)C3)(CC1)OC2)[C@H]1C[C@@H](O)c2cc(Cl)ccc2O1` [Compound 205, (2R,4R)-6-chloro-4-hydroxy-N-(1-{[cis-3-(trifluoromethoxy)cyclobutyl]carbamoyl}-2-oxabicyclo[2.2.2]octan-4-yl)-3,4-dihydro-2H-1-benzopyran-2-carboxamide] showed an EC50 of 50 to 250 nM.
`O=C(NC12CCC(C(=O)N[C@H]3C[C@@H](OC(F)(F)F)C3)(CC1)OC2)[C@@H]1C[C@H](O)c2cc(Cl)ccc2O1` [Compound 206, (2S,4S)-6-chloro-4-hydroxy-N-(1-{[cis-3-(trifluoromethoxy)cyclobutyl]carbamoyl}-2-oxabicyclo[2.2.2]octan-4-yl)-3,4-dihydro-2H-1-benzopyran-2-carboxamide] showed an EC50 of 500 to 2000 nM.
Work on `O=C(N[C@H]1CC[C@H](N2CCN(c3ccc(Cl)c(F)c3)C2=O)CC1)[C@H]1C[C@@H](O)c2cc(Cl)ccc2O1` [Compound 207, (2R,4R)-6-chloro-N-{trans-4-[3-(4-chloro-3-fluorophenyl)-2-oxoimidazolidin-1-yl]cyclohexyl}-4-hydroxy-3,4-dihydro-2H-1-benzopyran-2-carboxamide] yielded an EC50 of less than 10 nM.
`O=C(CO[C@H]1C[C@@H](OC(F)(F)F)C1)NC12CC(NC(=O)[C@@H]3C[C@@H](O)c4cc(Cl)ccc4O3)(C1)C2` [Compound 208, (2S,4R)-6-chloro-4-hydroxy-N-[3-(2-{[cis-3-(trifluoromethoxy)cyclobutyl]oxy}acetamido)bicyclo[1.1.1]pentan-1-yl]-3,4-dihydro-2H-1-benzopyran-2-carboxamide] showed an EC50 of less than 10 nM.
`O=C(NC12CC(n3cc(-c4ccc(Cl)cc4)cn3)(C1)C2)[C@H]1C[C@@H](O)c2cc(Cl)ccc2O1` [Compound 212, (2R,4R)-6-chloro-N-{3-[4-(4-chlorophenyl)-1H-pyrazol-1-yl]bicyclo[1.1.1]pentan-1-yl}-4-hydroxy-3,4-dihydro-2H-1-benzopyran-2-carboxamide] showed an EC50 of less than 10 nM.
For `O=C(CO[C@H]1C[C@@H](OC(F)(F)F)C1)N[C@H]1CC[C@H](NC(=O)[C@H]2CC(=O)c3cc(Cl)ccc3O2)CC1` [Compound 213, (2R)-6-chloro-4-oxo-N-[trans-4-(2-{[cis-3-(trifluoromethoxy)cyclobutyl]oxy}acetamido)cyclohexyl]-3,4-dihydro-2H-1-benzopyran-2-carboxamide], the EC50 was 50 to 250 nM.
